According to ChEMBL document CHEMBL2331163, “Enhancement of the water solubility of flavone glycosides by disruption of molecular planarity of the aglycone moiety” (J Nat Prod, 2013):
≈ marks a conversion by molar mass, not a printed value.

Tests used:
[1] = Aqueous solubility of the compound in water after 2 days by HPLC analysis; assay type: physicochemical
[2] = Lipophilicity, log P of the compound; assay type: physicochemical; details: octanol/water

| Compound | solubility at 48 h [1] [mg/mL] | logP [2] |
| --- | --- | --- |
| C[C@@H]1O[C@@H](O[C@H]2[C@H](Oc3cc(O)c4c(=O)c(Br)c(-c5ccc(O)cc5)oc4c3)O[C@H](CO)[C@@H](O)[C@@H]2O)[C@H](O)[C@H](O)[C@H]1O | > 100 | 0.93 |
| COc1ccc(-c2oc3cc(O[C@@H]4O[C@H](CO[C@@H]5O[C@@H](C)[C@H](O)[C@@H](O)[C@H]5O)[C@@H](O)[C@H](O)[C@H]4O)cc(O)c3c(=O)c2Br)cc1 | 13.8 (≈ 20.6 mM) | 1.17 |
| COc1ccc(-c2oc3cc(O[C@@H]4O[C@H](CO[C@@H]5O[C@@H](C)[C@H](O)[C@@H](O)[C@H]5O)[C@@H](O)[C@H](O)[C@H]4O)cc(O)c3c(=O)c2O)cc1O | 0.0056 (≈ 0.00897 mM) | 0.06 |
| COc1ccc(-c2oc3cc(O[C@@H]4O[C@H](CO[C@@H]5O[C@@H](C)[C@H](O)[C@@H](O)[C@H]5O)[C@@H](O)[C@H](O)[C@H]4O)cc(O)c3c(=O)c2Cl)cc1O | 231 (≈ 359 mM) | 0.44 |
| COc1ccc(-c2oc3cc(O[C@@H]4O[C@H](CO[C@@H]5O[C@@H](C)[C@H](O)[C@@H](O)[C@H]5O)[C@@H](O)[C@H](O)[C@H]4O)cc(O)c3c(=O)c2Br)cc1O | 214 (≈ 311 mM) | 0.61 |
| COc1ccc(-c2cc(=O)c3c(O)cc(O[C@@H]4O[C@H](CO[C@@H]5O[C@@H](C)[C@H](O)[C@@H](O)[C@H]5O)[C@@H](O)[C@H](O)[C@H]4O)cc3o2)cc1 [ACACIIN] | 0.0046 (≈ 0.00776 mM) | 0.84 |
| C[C@@H]1O[C@@H](O[C@H]2[C@H](Oc3cc(O)c4c(=O)cc(-c5ccc(O)cc5)oc4c3)O[C@H](CO)[C@@H](O)[C@@H]2O)[C@H](O)[C@H](O)[C@H]1O [RHOIFOLIN] | 0.114 (≈ 0.197 mM) | 0.71 |
